Structures can show the parent of a compound that is named as a salt.
Experiment: Solubility of marketed Drug Products: cyclodextrin to drug ratio
Conditions: CD = hydroxypropyl-β-cyclodextrin

Molecule | CD/D (mol/mol)
CN1C(=O)CN=C(c2ccccc2)c2cc(Cl)ccc21 [Diazepam] | 18.4 mol/mol
O=C(CCCN1CCC(O)(c2ccc(Cl)cc2)CC1)c1ccc(F)cc1 [Haloperidol] | 302.9 mol/mol
CCC(C)n1ncn(-c2ccc(N3CCN(c4ccc(OCC5COC(Cn6cncn6)(c6ccc(Cl)cc6Cl)O5)cc4)CC3)cc2)c1=O (stereo not drawn) [Itraconazole] | 20.2 mol/mol
CN(Cc1cnc2nc(N)nc(N)c2n1)c1ccc(C(=O)N[C@@H](CCC(=O)O)C(=O)O)cc1 [Methotrexate] | 18.3 mol/mol
CC(C)NCC(O)COc1cccc2ccccc12 (stereo not drawn) [Propranolol] | 10.4 mol/mol
CNC(=C[N+](=O)[O-])NCCSCc1ccc(CN(C)C)o1 [Ranitidine HCl] | 14.5 mol/mol
CCCCCCCCCCNCCN[C@@]1(C)C[C@H](O[C@H]2[C@H](Oc3c4cc5cc3Oc3ccc(cc3Cl)[C@@H](O)[C@@H](NC(=O)[C@@H](CC(C)C)NC)C(=O)N[C@@H](CC(N)=O)C(=O)N[C@H]5C(=O)N[C@H]3C(=O)N[C@H](C(=O)N[C@H](C(=O)O)c5cc(O)c(CNCP(=O)(O)O)c(O)c5-c5cc3ccc5O)[C@H](O)c3ccc(c(Cl)c3)O4)O[C@H](CO)[C@@H](O)[C@@H]2O)O[C@@H](C)[C@H]1O [Telavancin HCl] | 12.6 mol/mol

Same assay, conditions: CD = sulfobutyl ether β-cyclodextrin

Molecule | CD/D (mol/mol)
CC[C@@H]([C@H](C)O)n1ncn(-c2ccc(N3CCN(c4ccc(OC[C@@H]5CO[C@@](Cn6cncn6)(c6ccc(F)cc6F)C5)cc4)CC3)cc2)c1=O [Posaconazole] | 6.9 mol/mol
C[C@@H](c1ncncc1F)[C@](O)(Cn1cncn1)c1ccc(F)cc1F [Voriconazole] | 2.5 mol/mol

Experiment: not given
Assay type: physicochemical
Conditions: not given
Description: 1% (w/v) of propofol was prepared in a saline based solution with different PEG-carbohydrate conjugates. Table 6 listed the minimum concentration of the conjugates required to solublize propofol as a solubility test reference.

Molecule | Concentration (% w/v)
2-hydroxypropyl-β-cyclodextrin | 30 % w/v
cholesterypropanediaminelactobionate-mPEG12 | 3.5 % w/v
oleoylpropanediaminelactobionate-mPEG12 | 3.0 % w/v

From patent US10064954B2, “Polymer-cyclodextrin-lipid conjugates” (priority 2015, dated 2018)
